Reference: PubChem BioAssay (NCI)
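Grown in 96-well plates, cells were treated for 48 hours with each compound at five concentrations. Insufficient inhibition: endpoint recorded as highest concentration tested. GI50 is the concentration that inhibits growth by half. The concentration for full growth arrest is given as TGI.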

Experiments:
Experiment in all cases: NCI tumour cell line growth inhibition, 48 h
786-0 renal = test system: 786-0 renal
A498 renal = test system: A498 renal
A549 NSCLC = test system: A549 NSCLC
ACHN renal = test system: ACHN renal
BT-549 breast = test system: BT-549 breast
CAKI-1 renal = test system: CAKI-1 renal
CCRF-CEM leukemia = test system: CCRF-CEM leukemia
COLO 205 colon = test system: COLO 205 colon
DU-145 prostate = test system: DU-145 prostate
EKVX NSCLC = test system: EKVX NSCLC
HCC-2998 colon = test system: HCC-2998 colon
HCT-116 colon = test system: HCT-116 colon
HCT-15 colon = test system: HCT-15 colon
HL-60(TB) leukemia = test system: HL-60(TB) leukemia
HOP-62 NSCLC = test system: HOP-62 NSCLC
HOP-92 NSCLC = test system: HOP-92 NSCLC
HS 578T breast = test system: HS 578T breast
HT29 colon = test system: HT29 colon
IGROV1 ovarian = test system: IGROV1 ovarian
K-562 leukemia = test system: K-562 leukemia
KM12 colon = test system: KM12 colon
LOX IMVI melanoma = test system: LOX IMVI melanoma
M14 melanoma = test system: M14 melanoma
MALME-3M melanoma = test system: MALME-3M melanoma
MCF7 breast = test system: MCF7 breast
MDA-MB-231 breast = test system: MDA-MB-231 breast
MDA-MB-435 = test system: MDA-MB-435
MOLT-4 leukemia = test system: MOLT-4 leukemia
NCI-H226 lung = test system: NCI-H226 lung
NCI-H23 lung = test system: NCI-H23 lung
NCI-H460 lung = test system: NCI-H460 lung
NCI-H522 lung = test system: NCI-H522 lung
NCI/ADR-RES ovarian = test system: NCI/ADR-RES ovarian
OVCAR-3 ovarian = test system: OVCAR-3 ovarian
OVCAR-4 ovarian = test system: OVCAR-4 ovarian
OVCAR-5 ovarian = test system: OVCAR-5 ovarian
OVCAR-8 ovarian = test system: OVCAR-8 ovarian
PC-3 prostate = test system: PC-3 prostate
RPMI-8226 leukemia = test system: RPMI-8226 leukemia
RXF 393 renal = test system: RXF 393 renal
SF-268 CNS = test system: SF-268 CNS
SF-295 CNS = test system: SF-295 CNS
SF-539 CNS = test system: SF-539 CNS
SK-MEL-2 melanoma = test system: SK-MEL-2 melanoma
SK-MEL-28 melanoma = test system: SK-MEL-28 melanoma
SK-MEL-5 melanoma = test system: SK-MEL-5 melanoma
SK-OV-3 ovarian = test system: SK-OV-3 ovarian
SN12C renal = test system: SN12C renal
SNB-19 CNS = test system: SNB-19 CNS
SNB-75 CNS = test system: SNB-75 CNS
SR leukemia = test system: SR leukemia
SW-620 colon = test system: SW-620 colon
T-47D breast = test system: T-47D breast
TK-10 renal = test system: TK-10 renal
U251 CNS = test system: U251 CNS
UACC-257 melanoma = test system: UACC-257 melanoma
UACC-62 melanoma = test system: UACC-62 melanoma
UO-31 renal = test system: UO-31 renal

Fc1cnc(NC2CC2)nc1-c1cnc2ccc(N3CCOCC3)cn12
GI50 (786-0 renal): 322 nM | TGI (786-0 renal): 22800 nM | GI50 (A498 renal): 168 nM | TGI (A498 renal): 430 nM | GI50 (A549 NSCLC): 292 nM | TGI (A549 NSCLC): > 64300 nM | GI50 (ACHN renal): 160 nM | TGI (ACHN renal): 10600 nM | GI50 (BT-549 breast): 230 nM | TGI (BT-549 breast): 3350 nM | GI50 (CAKI-1 renal): 122 nM | TGI (CAKI-1 renal): 12500 nM | GI50 (CCRF-CEM leukemia): 325 nM | TGI (CCRF-CEM leukemia): > 100000 nM | GI50 (COLO 205 colon): 144 nM | TGI (COLO 205 colon): 428 nM | GI50 (DU-145 prostate): 323 nM | TGI (DU-145 prostate): > 60900 nM | GI50 (EKVX NSCLC): 297 nM | TGI (EKVX NSCLC): 3460 nM | GI50 (HCC-2998 colon): 305 nM | TGI (HCC-2998 colon): 2620 nM | GI50 (HCT-116 colon): 160 nM | TGI (HCT-116 colon): > 56300 nM | GI50 (HCT-15 colon): 266 nM | TGI (HCT-15 colon): 14500 nM | GI50 (HL-60(TB) leukemia): 304 nM | TGI (HL-60(TB) leukemia): 1010 nM | GI50 (HOP-62 NSCLC): 306 nM | TGI (HOP-62 NSCLC): > 44800 nM | GI50 (HOP-92 NSCLC): 116 nM | TGI (HOP-92 NSCLC): 461 nM | GI50 (HS 578T breast): 265 nM | TGI (HS 578T breast): 2460 nM | GI50 (HT29 colon): 251 nM | TGI (HT29 colon): > 58300 nM | GI50 (IGROV1 ovarian): 268 nM | TGI (IGROV1 ovarian): 17500 nM | GI50 (K-562 leukemia): 441 nM | TGI (K-562 leukemia): > 100000 nM | GI50 (KM12 colon): 237 nM | TGI (KM12 colon): 3970 nM | GI50 (LOX IMVI melanoma): 90 nM | TGI (LOX IMVI melanoma): 12500 nM | GI50 (M14 melanoma): 279 nM | TGI (M14 melanoma): 1010 nM | GI50 (MALME-3M melanoma): 340 nM | TGI (MALME-3M melanoma): 1060 nM | GI50 (MCF7 breast): 272 nM | TGI (MCF7 breast): 6910 nM | GI50 (MDA-MB-231 breast): 203 nM | TGI (MDA-MB-231 breast): 1680 nM | GI50 (MDA-MB-435): 272 nM | TGI (MDA-MB-435): 992 nM | GI50 (MOLT-4 leukemia): 346 nM | GI50 (NCI-H226 lung): 201 nM | TGI (NCI-H226 lung): 1390 nM | GI50 (NCI-H23 lung): 242 nM | TGI (NCI-H23 lung): 957 nM | GI50 (NCI-H460 lung): 291 nM | TGI (NCI-H460 lung): 10200 nM | GI50 (NCI-H522 lung): 374 nM | TGI (NCI-H522 lung): 6110 nM | GI50 (NCI/ADR-RES ovarian): 276 nM | TGI (NCI/ADR-RES ovarian): 4700 nM | GI50 (OVCAR-3 ovarian): 258 nM | TGI (OVCAR-3 ovarian): > 32600 nM | GI50 (OVCAR-4 ovarian): 306 nM | TGI (OVCAR-4 ovarian): 3060 nM | GI50 (OVCAR-5 ovarian): 188 nM | TGI (OVCAR-5 ovarian): 3130 nM | GI50 (OVCAR-8 ovarian): 284 nM | TGI (OVCAR-8 ovarian): > 73900 nM | GI50 (PC-3 prostate): 276 nM | TGI (PC-3 prostate): 8600 nM | GI50 (RPMI-8226 leukemia): 292 nM | TGI (RPMI-8226 leukemia): 1710 nM | GI50 (RXF 393 renal): 93.2 nM | TGI (RXF 393 renal): 303 nM | GI50 (SF-268 CNS): 296 nM | TGI (SF-268 CNS): 6850 nM | GI50 (SF-295 CNS): 299 nM | TGI (SF-295 CNS): 12100 nM | GI50 (SF-539 CNS): 164 nM | TGI (SF-539 CNS): 538 nM | GI50 (SK-MEL-2 melanoma): 218 nM | TGI (SK-MEL-2 melanoma): 641 nM | GI50 (SK-MEL-28 melanoma): 252 nM | TGI (SK-MEL-28 melanoma): 1270 nM | GI50 (SK-MEL-5 melanoma): 231 nM | TGI (SK-MEL-5 melanoma): 706 nM | GI50 (SK-OV-3 ovarian): 781 nM | TGI (SK-OV-3 ovarian): 81900 nM | GI50 (SN12C renal): 242 nM | TGI (SN12C renal): 5570 nM | GI50 (SNB-19 CNS): 290 nM | TGI (SNB-19 CNS): 17700 nM | GI50 (SNB-75 CNS): 158 nM | TGI (SNB-75 CNS): 475 nM | GI50 (SR leukemia): 128 nM | GI50 (SW-620 colon): 292 nM | TGI (SW-620 colon): 12400 nM | GI50 (T-47D breast): 299 nM | TGI (T-47D breast): 18600 nM | GI50 (TK-10 renal): 357 nM | TGI (TK-10 renal): 54200 nM | GI50 (U251 CNS): 271 nM | TGI (U251 CNS): > 42400 nM | GI50 (UACC-257 melanoma): 380 nM | TGI (UACC-257 melanoma): 11200 nM | GI50 (UACC-62 melanoma): 200 nM | TGI (UACC-62 melanoma): 699 nM | GI50 (UO-31 renal): 282 nM | TGI (UO-31 renal): 11100 nM
